Reference: ChEMBL document CHEMBL4373738, “Search for new multi-target compounds against Alzheimer's disease among histamine H3 receptor ligands” (Eur J Med Chem, 2020)
Active and inactive are the calls of the source. The calls are words filed in the database; no cut-off is given here.

Columns and labels:
Histamine H3 receptor [1] = biological target: T1, Histamine H3 receptor (Homo sapiens, UniProt Q9Y5N1); experiment: Displacement of [125I]Iodoproxyfan from human histamine H3 receptor stably expressed in CHOK1 cells after 60 mins; assay type: cell-based
T1 sequence (Q9Y5N1 whole entry): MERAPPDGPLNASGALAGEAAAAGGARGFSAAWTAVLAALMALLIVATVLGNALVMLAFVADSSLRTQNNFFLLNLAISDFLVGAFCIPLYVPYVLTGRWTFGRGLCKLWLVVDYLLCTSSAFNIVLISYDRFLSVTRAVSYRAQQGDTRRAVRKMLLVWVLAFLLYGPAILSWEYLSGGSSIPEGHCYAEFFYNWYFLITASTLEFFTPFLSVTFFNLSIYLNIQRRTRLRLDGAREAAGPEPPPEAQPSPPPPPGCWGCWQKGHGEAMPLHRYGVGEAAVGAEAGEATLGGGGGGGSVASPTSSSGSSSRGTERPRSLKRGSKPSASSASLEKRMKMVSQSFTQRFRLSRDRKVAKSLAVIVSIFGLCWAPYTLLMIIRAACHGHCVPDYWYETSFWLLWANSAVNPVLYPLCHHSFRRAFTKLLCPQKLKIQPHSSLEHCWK

[2] = biological target: Acetylcholinesterase (Electrophorus electricus) (UniProt O42275); experiment: Inhibition of electric eel AChE using acetylthiocholine iodide as substrate at 10 uM preincubated with enzyme for 5 mins prior to substrate addition measured after 5 mins by Ellman's method relative to control
Acetylcholinesterase (Electrophorus electricus), sequence (O42275 24-633 limits assumed): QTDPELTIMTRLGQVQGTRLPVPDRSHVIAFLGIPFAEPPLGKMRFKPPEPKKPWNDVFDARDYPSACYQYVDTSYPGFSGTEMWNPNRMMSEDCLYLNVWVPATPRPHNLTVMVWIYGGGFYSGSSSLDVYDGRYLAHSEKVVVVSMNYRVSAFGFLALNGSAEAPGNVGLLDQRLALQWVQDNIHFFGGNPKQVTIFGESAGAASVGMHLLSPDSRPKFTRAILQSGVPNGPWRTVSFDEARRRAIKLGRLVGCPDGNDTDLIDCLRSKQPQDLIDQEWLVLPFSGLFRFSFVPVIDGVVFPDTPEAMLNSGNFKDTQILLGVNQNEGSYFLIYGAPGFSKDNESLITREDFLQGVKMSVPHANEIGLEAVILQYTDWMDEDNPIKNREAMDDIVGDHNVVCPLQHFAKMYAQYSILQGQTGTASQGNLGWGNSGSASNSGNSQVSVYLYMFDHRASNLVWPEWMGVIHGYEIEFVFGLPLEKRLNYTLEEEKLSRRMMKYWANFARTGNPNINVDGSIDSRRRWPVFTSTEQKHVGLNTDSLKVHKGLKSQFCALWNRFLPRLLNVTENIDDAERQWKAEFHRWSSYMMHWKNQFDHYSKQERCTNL

[3] = biological target: Cholinesterase (Equus caballus) (UniProt P81908); experiment: Inhibition of equine serum BChE using butyrylthiocholine iodide as substrate at 10 uM preincubated with enzyme for 5 mins prior to substrate addition measured after 5 mins by Ellman's method relative to control
Cholinesterase (Equus caballus), sequence (P81908 whole entry): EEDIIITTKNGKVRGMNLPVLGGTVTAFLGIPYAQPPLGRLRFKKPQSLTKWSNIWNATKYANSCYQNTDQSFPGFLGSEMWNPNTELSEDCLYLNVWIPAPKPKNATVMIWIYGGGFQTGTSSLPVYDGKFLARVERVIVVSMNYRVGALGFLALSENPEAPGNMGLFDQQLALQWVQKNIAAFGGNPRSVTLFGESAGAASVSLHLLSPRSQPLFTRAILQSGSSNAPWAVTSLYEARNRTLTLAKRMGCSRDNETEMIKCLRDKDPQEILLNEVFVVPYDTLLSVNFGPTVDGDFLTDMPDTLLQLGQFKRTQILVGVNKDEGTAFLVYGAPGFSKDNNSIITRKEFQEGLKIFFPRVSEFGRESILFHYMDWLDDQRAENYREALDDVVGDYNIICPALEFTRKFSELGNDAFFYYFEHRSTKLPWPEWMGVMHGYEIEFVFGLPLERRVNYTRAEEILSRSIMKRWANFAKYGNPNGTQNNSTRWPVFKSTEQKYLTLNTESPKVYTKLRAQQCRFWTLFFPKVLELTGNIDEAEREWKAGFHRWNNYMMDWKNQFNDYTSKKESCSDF

Histamine H3 receptor [4] = biological target: T1, Histamine H3 receptor; experiment: Displacement of [3H]-N-alpha-methylhistamine from human histamine H3 receptor stably expressed in HEK293 cell membrane after 90 mins
Acetylcholinesterase [5] = biological target: T2, Acetylcholinesterase (Electrophorus electricus, UniProt O42275); experiment: Inhibition of electric eel AChE using acetylthiocholine iodide as substrate preincubated with enzyme for 5 mins prior to substrate addition measured after 5 mins by Ellman's method
T2 sequence (O42275 whole entry): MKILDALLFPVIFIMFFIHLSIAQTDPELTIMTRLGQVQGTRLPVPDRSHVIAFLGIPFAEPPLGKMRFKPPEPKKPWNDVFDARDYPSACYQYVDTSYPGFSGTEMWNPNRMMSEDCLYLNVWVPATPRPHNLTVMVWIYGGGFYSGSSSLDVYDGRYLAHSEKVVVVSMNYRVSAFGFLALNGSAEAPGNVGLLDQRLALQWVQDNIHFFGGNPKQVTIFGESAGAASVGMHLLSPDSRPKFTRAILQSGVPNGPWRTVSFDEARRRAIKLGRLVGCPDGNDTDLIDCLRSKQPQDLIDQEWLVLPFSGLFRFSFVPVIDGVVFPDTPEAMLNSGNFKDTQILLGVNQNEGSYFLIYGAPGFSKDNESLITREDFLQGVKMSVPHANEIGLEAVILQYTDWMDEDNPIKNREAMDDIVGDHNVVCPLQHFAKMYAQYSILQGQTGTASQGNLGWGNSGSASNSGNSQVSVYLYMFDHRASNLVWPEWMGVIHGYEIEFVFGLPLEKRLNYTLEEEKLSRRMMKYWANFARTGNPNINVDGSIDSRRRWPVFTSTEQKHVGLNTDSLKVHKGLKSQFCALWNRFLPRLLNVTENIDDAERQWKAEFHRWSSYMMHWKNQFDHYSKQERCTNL

Cholinesterase [6] = biological target: T3, Cholinesterase (Equus caballus, UniProt P81908)
T3 sequence (P81908 whole entry): as the sequence (P81908 whole entry) above
Description: Inhibition of equine serum BChE using butyrylthiocholine iodide as substrate preincubated with enzyme for 5 mins prior to substrate addition measured after 5 mins by Ellman's method

Acetylcholinesterase [7] = biological target: T4, Acetylcholinesterase (Homo sapiens, UniProt P22303); experiment: Inhibition of recombinant human AChE using acetylthiocholine iodide as substrate preincubated with enzyme for 5 mins prior to substrate addition measured after 5 mins by Ellman's method
T4 sequence (P22303 whole entry): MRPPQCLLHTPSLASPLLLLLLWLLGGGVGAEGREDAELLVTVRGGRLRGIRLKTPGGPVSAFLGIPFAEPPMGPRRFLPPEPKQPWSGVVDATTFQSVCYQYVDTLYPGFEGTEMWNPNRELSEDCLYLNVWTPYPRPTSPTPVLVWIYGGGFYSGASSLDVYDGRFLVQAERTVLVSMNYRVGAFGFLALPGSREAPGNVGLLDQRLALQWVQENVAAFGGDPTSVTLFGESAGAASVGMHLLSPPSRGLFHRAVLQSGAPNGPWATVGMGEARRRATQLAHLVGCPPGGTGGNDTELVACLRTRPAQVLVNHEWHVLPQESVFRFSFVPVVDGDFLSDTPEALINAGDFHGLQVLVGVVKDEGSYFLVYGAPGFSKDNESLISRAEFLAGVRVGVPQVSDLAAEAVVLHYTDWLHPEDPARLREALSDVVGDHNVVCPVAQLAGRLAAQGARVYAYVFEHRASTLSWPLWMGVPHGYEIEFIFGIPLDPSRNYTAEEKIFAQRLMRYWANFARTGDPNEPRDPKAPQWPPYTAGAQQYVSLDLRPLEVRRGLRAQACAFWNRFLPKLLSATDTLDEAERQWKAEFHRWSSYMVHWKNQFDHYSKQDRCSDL

Acetylcholinesterase [8] = biological target: T4, Acetylcholinesterase; experiment: Non-competitive inhibition of recombinant human AChE using acetylthiocholine iodide as substrate by Lineweaver-Burk plot analysis
Acetylcholinesterase [9] = biological target: T4, Acetylcholinesterase; experiment: Non-competitive inhibition of recombinant human AChE using acetylthiocholine iodide as substrate by Cornish-Bowden plot analysis
Acetylcholinesterase [10] = biological target: T2, Acetylcholinesterase; experiment: Non-competitive inhibition of electric eel AChE using acetylthiocholine iodide as substrate by Lineweaver-Burk plot analysis
Cholinesterase [11] = biological target: T3, Cholinesterase; experiment: Non-competitive inhibition of equine serum BChE using butyrylthiocholine iodide as substrate by Lineweaver-Burk plot analysis
Histamine H3 receptor [12] = biological target: T1, Histamine H3 receptor; experiment: Displacement of [125I]Iodoproxyfan from human histamine H3 receptor stably expressed in HEK293 cells after 60 mins; assay type: cell-based

Compound | Ki (Histamine H3 receptor [1]) | inhibition [2] | inhibition [3] | Ki (Histamine H3 receptor [4]) | IC50 (Acetylcholinesterase [5]) | IC50 (Cholinesterase [6]) | further results
O=C(c1ccccc1Cl)N1CCN(CCCOCC2CCC2)CC1 | > 1000 nM | 0% | 0% |  |  |  | 
Cc1ccc2oc(-c3ccc(OCCCCCCN4CCCC(C)C4)cc3)cc(=O)c2c1 (centres undefined) |  | 94% | 99.4% | 60 nM | 800 nM | 1090 nM | 
CC1CCCN(CCCCCCOc2ccc3c(c2)C(=O)CC(c2ccccc2)O3)C1 (centres undefined) |  | 91.5% | 90.3% | 523 nM | 800 nM | 1900 nM | 
O=C(c1ccc(OCCCN2CCN(C/C=C/c3ccccc3)CC2)cc1)C1CC1 | 83 nM | 8.85% | 38.4% |  |  |  | 
CCc1ccc(OCCCCCCN2CCC(C)CC2)cc1 |  | 23.5% | 75.1% | 181 nM |  | 3920 nM | 
Cc1ccc2oc(-c3ccc(OCCCCCCN4CCCCC4)cc3)cc(=O)c2c1 |  | 95.6% | 99.6% | 228 nM | 500 nM | 760 nM | IC50 (Acetylcholinesterase [7]): 360 nM; Ki (Acetylcholinesterase [8]): 129 nM; inhibition (Acetylcholinesterase [9]): Active
C(=C\c1ccccc1)/CN1CCN(CCCOCCCc2ccccc2)CC1 | 690 nM | 0% | 37.8% |  |  |  | 
Cc1ccc2oc(-c3ccc(OCCCCCCN4CCCCCC4)cc3)cc(=O)c2c1 |  | 95.9% | 99.5% | 160 nM | 460 nM | 440 nM | IC50 (Acetylcholinesterase [7]): 480 nM; Ki (Acetylcholinesterase [10]): 176 nM; Ki (Cholinesterase [11]): 281 nM
c1ccc(CCCOCCCN2CCN(Cc3ccccc3)CC2)cc1 | > 1000 nM | 18.8% | 33.9% |  |  |  | 
CCc1ccc(OCCCCCCN2CCCCCC2)cc1 |  | 30.8% | 85.7% | 84.3 nM |  | 1900 nM | 
O=C(c1ccc(OCCCN2CCN(c3ccccc3)CC2)cc1)C1CC1 |  | 7.58% | 11.2% |  |  |  | Ki (Histamine H3 receptor [12]): 111 nM
Clc1ccc(CCCOCCCN2CCCCC2)cc1 |  | 3.04% | 55.7% |  |  |  | 
CCOc1ccccc1N1CCN(CCCOCCCc2ccccc2)CC1 | > 1000 nM | 3.36% | 46% |  |  |  | 
